From patent US10420733B2, “Transdermal delivery system containing methylphenidate or its salts and methods thereof” (TAHO Pharmaceuticals Ltd., priority 2016, dated 2019)

Assay: Maximum amount of methylphenidate dissolved in various adhesives
Type: physicochemical
Description: Various adhesives were tested to determine the maximum amount of methylphenidate could be dissolved.

**Q.** Which “solubility in Duro Tak 87-6911” value does the source give for COC(=O)C(c1ccccc1)C1CCCCN1 (stereo not shown) [methylphenidate, a-phenyl-2-piperidineacetic acid methyl ester] here?
**A.** highly soluble
